Like-named read-outs stand apart in the source and are kept apart here.
Biological target: human sodium ion channel 1.7 (hNav1.7) (Homo sapiens, UniProt Q15858)
Experiment: Blocking effect against sodium ion channel Nav1.7, IonFlux16 auto patch clamp in hNav1.7 HEK293 cells
Format: cell-based
[1] = hNav1.7 HEK293 cells, inhibition of peak current after 50 seconds treatment, eight concentrations, read-out: IC50

human sodium ion channel 1.7 (hNav1.7), sequence (Q15858 whole entry): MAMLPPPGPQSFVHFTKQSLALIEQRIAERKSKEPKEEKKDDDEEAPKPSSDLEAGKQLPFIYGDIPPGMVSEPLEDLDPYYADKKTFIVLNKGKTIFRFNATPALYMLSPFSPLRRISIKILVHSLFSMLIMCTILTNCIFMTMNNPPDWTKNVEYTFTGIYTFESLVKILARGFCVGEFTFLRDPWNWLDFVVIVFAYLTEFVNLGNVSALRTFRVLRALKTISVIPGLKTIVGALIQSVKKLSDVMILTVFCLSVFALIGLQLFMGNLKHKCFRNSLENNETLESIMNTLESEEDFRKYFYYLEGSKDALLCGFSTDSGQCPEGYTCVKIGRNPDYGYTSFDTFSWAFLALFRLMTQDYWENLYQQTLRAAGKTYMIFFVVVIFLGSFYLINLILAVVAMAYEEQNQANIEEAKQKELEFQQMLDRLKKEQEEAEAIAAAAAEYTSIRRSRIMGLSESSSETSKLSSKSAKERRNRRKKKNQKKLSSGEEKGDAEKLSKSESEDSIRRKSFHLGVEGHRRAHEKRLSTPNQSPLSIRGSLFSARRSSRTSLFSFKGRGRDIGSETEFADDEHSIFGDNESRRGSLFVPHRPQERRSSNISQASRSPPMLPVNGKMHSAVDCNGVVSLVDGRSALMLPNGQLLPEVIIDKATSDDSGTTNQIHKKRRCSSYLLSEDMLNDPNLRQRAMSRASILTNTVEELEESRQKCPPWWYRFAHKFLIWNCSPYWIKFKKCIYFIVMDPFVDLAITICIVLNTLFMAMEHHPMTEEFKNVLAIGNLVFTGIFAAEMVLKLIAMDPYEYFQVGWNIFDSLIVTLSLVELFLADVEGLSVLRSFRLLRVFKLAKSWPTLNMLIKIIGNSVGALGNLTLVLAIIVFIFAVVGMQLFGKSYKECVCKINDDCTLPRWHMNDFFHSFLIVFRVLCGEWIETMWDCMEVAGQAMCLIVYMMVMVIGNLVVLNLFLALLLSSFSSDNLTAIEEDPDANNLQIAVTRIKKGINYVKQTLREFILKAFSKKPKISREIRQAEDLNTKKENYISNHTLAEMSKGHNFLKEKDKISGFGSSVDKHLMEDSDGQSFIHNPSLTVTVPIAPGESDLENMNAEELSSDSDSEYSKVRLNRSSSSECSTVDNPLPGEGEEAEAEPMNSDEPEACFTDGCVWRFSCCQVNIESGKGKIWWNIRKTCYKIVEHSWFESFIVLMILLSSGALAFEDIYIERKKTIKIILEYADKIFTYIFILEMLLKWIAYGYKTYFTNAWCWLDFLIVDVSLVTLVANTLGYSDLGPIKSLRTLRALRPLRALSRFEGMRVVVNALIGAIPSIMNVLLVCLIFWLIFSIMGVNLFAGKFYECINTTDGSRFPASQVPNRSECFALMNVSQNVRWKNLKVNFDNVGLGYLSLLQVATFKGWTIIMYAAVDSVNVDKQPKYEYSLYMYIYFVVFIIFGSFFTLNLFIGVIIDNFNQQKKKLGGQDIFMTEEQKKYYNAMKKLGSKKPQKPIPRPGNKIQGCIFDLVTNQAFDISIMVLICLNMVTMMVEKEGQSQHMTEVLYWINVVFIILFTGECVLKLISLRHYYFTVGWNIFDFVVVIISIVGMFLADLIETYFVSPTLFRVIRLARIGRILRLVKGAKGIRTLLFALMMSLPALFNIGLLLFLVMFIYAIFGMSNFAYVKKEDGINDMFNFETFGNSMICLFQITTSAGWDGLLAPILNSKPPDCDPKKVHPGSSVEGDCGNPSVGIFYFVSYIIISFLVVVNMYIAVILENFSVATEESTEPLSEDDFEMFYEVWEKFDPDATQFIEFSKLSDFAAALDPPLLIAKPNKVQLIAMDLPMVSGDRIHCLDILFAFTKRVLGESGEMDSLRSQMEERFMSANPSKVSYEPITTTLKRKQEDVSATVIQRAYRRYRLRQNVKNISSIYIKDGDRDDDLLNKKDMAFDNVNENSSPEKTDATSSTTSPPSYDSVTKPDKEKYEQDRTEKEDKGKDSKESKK

Row | IC50 [1] | IC50 | SMILES
1 | 3000 to 10000 nM | – | CS(=O)(=O)NC(=O)c1cc(Cl)c(-n2nc(Cl)c3cc(-c4cccnc4)ccc32)cc1F [Example 231, 5-chloro-4-(3-chloro-5-(pyridin-3-yl)-1H-indazol-1-yl)-2-fluoro-N-(methylsulfonyl)benzamide]
2 | 110 nM | – | COc1ccc(-c2nn(-c3cc(F)c(C(=O)NS(C)(=O)=O)cc3Cl)c3ccc(F)cc23)cc1 [Example 155, 5-chloro-2-fluoro-4-(5-fluoro-3-(4-methoxyphenyl)-1H-indazol-1-yl)-N-(methylsulfonyl)benzamide]
3 | 6020 nM | – | COc1ncccc1-c1nn(-c2ccc(C(=O)NS(C)(=O)=O)cc2C#N)c2ccc(Cl)cc12 [Example 106, 4-(5-chloro-3-(2-methoxypyridin-3-yl)-1H-indazol-1-yl)-3-cyano-N-(methylsulfonyl)benzamide]
4 | 227 nM | – | CN(C)S(=O)(=O)NC(=O)c1cc(Cl)c(-n2nc(Cl)c3cc(Cl)ccc32)cc1F [Example 7, 5-chloro-4-(3,5-dichloro-1H-indazol-1-yl)-N—(N,N-dimethylsulfamoyl)-2-fluorobenzamide]
5 | > 10000 nM | – | O=S(=O)(Nc1cscn1)c1cc(Cl)c(-n2nc(-c3cn[nH]c3)c3cc(Cl)ccc32)cc1F [Example 284, 5-chloro-4-(5-chloro-3-(1H-pyrazol-4-yl)-1H-indazol-1-yl)-2-fluoro-N-(thiazol-4-yl)benzenesulfonamide]
6 | > 10000 nM | – | CS(=O)(=O)NC(=O)c1cc(Cl)c(-n2nc(N)c3cc(Cl)ccc32)cc1F [Example 5, 4-(3-amino-5-chloro-1H-indazol-1-yl)-5-chloro-2-fluoro-N-(methylsulfonyl)benzamide]
7 | 175 nM | – | CS(=O)(=O)NC(=O)c1cc(Cl)c(-n2nc(Cl)c3cc(-c4ccc(F)cc4F)ccc32)cc1F [Example 243, 5-chloro-4-(3-chloro-5-(2,4-difluorophenyl)-1H-indazol-1-yl)-2-fluoro-N-(methylsulfonyl)benzamide]
8 | – | 70 nM | CS(=O)(=O)NC(=O)c1cc(Cl)c(-n2nc(-c3cccc(Cl)c3F)c3cc(Cl)ccc32)cc1F [Example 79, 5-chloro-4-(5-chloro-3-(3-chloro-2-fluorophenyl)-1H-indazol-1-yl)-2-fluoro-N-(methylsulfonyl)benzamide]
9 | 110 nM | – | CS(=O)(=O)NC(=O)c1cc(Cl)c(-n2cc(-c3ccc(Cl)cc3F)c3cc(Cl)cnc32)cc1F [Example 189, 5-chloro-4-(5-chloro-3-(4-chloro-2-fluorophenyl)-1H-pyrrolo[2,3-b]pyridin-1-yl)-2-fluoro-N-(methylsulfonyl)benzamide]
10 | 50 nM | – | CS(=O)(=O)NC(=O)c1cc(Cl)c(-n2cc(-c3ccc(F)cc3Cl)c3cc(F)cnc32)cc1F [Example 202, 5-chloro-4-(3-(2-chloro-4-fluorophenyl)-5-fluoro-1H-pyrrolo[2,3-b]pyridin-1-yl)-2-fluoro-N-(methylsulfonyl)benzamide]
11 | 1510 nM | – | CS(=O)(=O)NC(=O)c1cc(Cl)c(-n2nc(Cl)c3c(Cl)c(OCc4ccc(F)cc4)ccc32)cc1F [Example 31, 5-chloro-4-(3,4-dichloro-5-((4-fluorobenzyl)oxy)-1H-indazol-1-yl)-2-fluoro-N-(methylsulfonyl)benzamide]
12 | > 10000 nM | – | CC(=O)Nc1nn(-c2cc(F)c(C(=O)NS(C)(=O)=O)cc2Cl)c2ccc(Cl)cc12 [Example 6, 4-(3-acetamido-5-chloro-1H-indazol-1-yl)-5-chloro-2-fluoro-N-(methylsulfonyl)benzamide]
13 | 200 nM | – | CS(=O)(=O)NC(=O)c1cc(Cl)c(-n2nc(-c3ccc(F)cc3F)c3ccccc32)cc1F [Example 176, 5-chloro-4-(3-(2,4-difluorophenyl)-1H-indazol-1-yl)-2-fluoro-N-(methylsulfonyl)benzamide]
14 | 300 nM | – | CS(=O)(=O)NC(=O)c1cc(Cl)c(-n2cc(-c3cc(Cl)ccc3F)c3cccnc32)cc1F [Example 219, 5-chloro-4-(3-(5-chloro-2-fluorophenyl)-1H-pyrrolo[2,3-b]pyridin-1-yl)-2-fluoro-N-(methylsulfonyl)benzamide]
15 | 96 nM | – | CS(=O)(=O)NC(=O)c1cc(Cl)c(-n2nc(-c3cccc(C#N)c3)c3cc(Cl)ccc32)cc1F [Example 61, 5-chloro-4-(5-chloro-3-(3-cyanophenyl)-1H-indazol-1-yl)-2-fluoro-N-(methylsulfonyl)benzamide]
16 | 123 nM | – | COc1ncccc1-c1nn(-c2cc(F)c(C(=O)NS(C)(=O)=O)cc2Cl)c2ccc(Cl)cc12 [Example 57, 5-chloro-4-(5-chloro-3-(2-methoxypyridin-3-yl)-1H-indazol-1-yl)-2-fluoro-N-(methylsulfonyl)benzamide]
17 | 90 nM | – | CS(=O)(=O)NC(=O)c1cc(Cl)c(-n2nc(-c3cccc(F)c3)c3cc(F)ccc32)cc1F [Example 148, 5-chloro-2-fluoro-4-(5-fluoro-3-(3-fluorophenyl)-1H-indazol-1-yl)-N-(methylsulfonyl)benzamide]
18 | 640 nM | – | CS(=O)(=O)NC(=O)c1cc(Cl)c(-n2nc(-c3c(F)cccc3Cl)c3cc(F)ccc32)cc1F [Example 162, 5-chloro-4-(3-(2-chloro-6-fluorophenyl)-5-fluoro-1H-indazol-1-yl)-2-fluoro-N-(methylsulfonyl)benzamide]

Row | IC50 [1] | IC50 | SMILES
19 | 113 nM | – | CS(=O)(=O)NC(=O)c1cc(Cl)c(-n2nc(Cl)c3cc(-c4ccc(C(F)(F)F)cc4)ccc32)cc1F [Example 251, 5-chloro-4-(3-chloro-5-(4-(trifluoromethyl)phenyl)-1H-indazol-1-yl)-2-fluoro-N-(methylsulfonyl)benzamide]
20 | 290 nM | – | CS(=O)(=O)NC(=O)c1ccc(-n2nc(-c3ccccc3F)c3cc(Cl)ccc32)c(F)c1 [Example 124, 4-(5-chloro-3-(2-fluorophenyl)-1H-indazol-1-yl)-3-fluoro-N-(methylsulfonyl)benzamide]
21 | 216 nM | – | CS(=O)(=O)NC(=O)c1cc(Cl)c(-n2nc(Br)c3cc(Cl)ccc32)cc1F [Example 19, 4-(3-bromo-5-chloro-1H-indazol-1-yl)-5-chloro-2-fluoro-N-(methylsulfonyl)benzamide]
22 | 28 nM | – | CS(=O)(=O)NC(=O)c1cc(Cl)c(-n2nc(-c3ccc(C(F)(F)F)cc3)c3cc(Cl)ccc32)cc1F [Example 65, 5-chloro-4-(5-chloro-3-(4-(trifluoromethyl)phenyl)-1H-indazol-1-yl)-2-fluoro-N-(methylsulfonyl)benzamide]
23 | 970 nM | – | CS(=O)(=O)NC(=O)c1cc(Cl)c(-n2cc(-c3cccc(Cl)c3)c3cccnc32)cc1F [Example 221, 5-chloro-4-(3-(3-chlorophenyl)-1H-pyrrolo[2,3-b]pyridin-1-yl)-2-fluoro-N-(methylsulfonyl)benzamide]
24 | 30 nM | – | CS(=O)(=O)NC(=O)c1cc(Cl)c(-n2nc(-c3ccc(Cl)cc3F)c3cc(F)ccc32)cc1F [Example 142, 5-chloro-4-(3-(4-chloro-2-fluorophenyl)-5-fluoro-1H-indazol-1-yl)-2-fluoro-N-(methylsulfonyl)benzamide]
25 | 89 nM | – | CS(=O)(=O)NC(=O)c1cc(Cl)c(-n2nc(Cl)c3cc(-c4cccc(F)c4)ccc32)cc1F [Example 235, 5-chloro-4-(3-chloro-5-(3-fluorophenyl)-1H-indazol-1-yl)-2-fluoro-N-(methylsulfonyl)benzamide]
26 | > 10000 nM | – | O=C(Nc1nccs1)c1cc(Cl)c(-n2nc(-c3ccc(Cl)cc3F)c3cc(Cl)ccc32)cc1F [Example 294, 5-chloro-4-(5-chloro-3-(4-chloro-2-fluorophenyl)-1H-indazol-1-yl)-2-fluoro-N-(thiazol-2-yl)benzamide]
27 | > 10000 nM | – | CS(=O)(=O)NC(=O)c1cc(Cl)c(-n2nc(Cl)c3cc(Cl)ncc32)cc1F [Example 11, 5-chloro-4-(3,5-dichloro-1H-pyrazolo[3,4-c]pyridin-1-yl)-2-fluoro-N-(methylsulfonyl)benzamide]
28 | 1740 nM | – | CC(C)(O)C#Cc1nn(-c2cc(F)c(C(=O)NS(C)(=O)=O)cc2Cl)c2ccc(Cl)cc12 [Example 129, 5-chloro-4-(5-chloro-3-(3-hydroxy-3-methylbut-1-yn-1-yl)-1H-indazol-1-yl)-2-fluoro-N-(methylsulfonyl)benzamide]
29 | 158 nM | – | CS(=O)(=O)NC(=O)c1cc(Cl)c(-n2nc(Cl)c3c(Cl)c(OCc4ccccc4F)ccc32)cc1F [Example 32, 5-chloro-4-(3,4-dichloro-5-((2-fluorobenzyl)oxy)-1H-indazol-1-yl)-2-fluoro-N-(methylsulfonyl)benzamide]
30 | 680 nM | – | CS(=O)(=O)NC(=O)c1cc(Cl)c(-n2nc(/C=C/c3ccc(C(F)(F)F)cc3)c3cc(Cl)ccc32)cc1F [Example 137, (E)-5-chloro-4-(5-chloro-3-(4-(trifluoromethyl)styryl)-1H-indazol-1-yl)-2-fluoro-N-(methylsulfonyl)benzamide]
31 | 170 nM | – | CS(=O)(=O)NC(=O)c1ccc(-n2nc(-c3ccccc3C(F)(F)F)c3cc(Cl)ccc32)c(C#N)c1 [Example 97, 4-(5-chloro-3-(2-(trifluoromethyl)phenyl)-1H-indazol-1-yl)-3-cyano-N-(methylsulfonyl)benzamide]
32 | 1790 nM | – | CS(=O)(=O)NC(=O)c1ccc(-n2nc(-c3cccc(C#N)c3)c3cc(Cl)ccc32)c(F)c1 [Example 119, 4-(5-chloro-3-(3-cyanophenyl)-1H-indazol-1-yl)-3-fluoro-N-(methylsulfonyl)benzamide]
33 | 71 nM | – | CS(=O)(=O)NC(=O)c1cc(Cl)c(-n2nc(Cl)c3cc(-c4ccc(F)cc4)ccc32)cc1F [Example 236, 5-chloro-4-(3-chloro-5-(4-fluorophenyl)-1H-indazol-1-yl)-2-fluoro-N-(methylsulfonyl)benzamide]
34 | 5490 nM | – | CS(=O)(=O)NC(=O)c1cc(Cl)c(-n2nc(-c3cccnc3)c3cc(F)ccc32)cc1F [Example 165, 5-chloro-2-fluoro-4-(5-fluoro-3-(pyridin-3-yl)-1H-indazol-1-yl)-N-(methylsulfonyl)benzamide]
35 | 2170 nM | – | CS(=O)(=O)NC(=O)c1ccc(-n2nc(-c3cccc(F)c3)c3cc(Cl)ccc32)c(C#N)c1 [Example 103, 4-(5-chloro-3-(3-fluorophenyl)-1H-indazol-1-yl)-3-cyano-N-(methylsulfonyl)benzamide]
